In ChEMBL document CHEMBL3862033 (J Med Chem, 2016) one finds inhibition and Ki data, which are given here for five compounds.

Assay [1] has as its target 5-hydroxytryptamine receptor 1D (Homo sapiens) (UniProt P28221). Briefly: Displacement of [3H]5-CT from human 5-HT1D receptor expressed in HEK-T cell membranes at 10 uM incubated for 90 mins under dark condition by microbeta scintillation counting method relative to control.
Assay [2] has as its target 5-hydroxytryptamine receptor 4 (Homo sapiens) (UniProt Q13639). The assay is described as follows: Displacement of [3H]GR113808 from human 5-HT4 receptor at 10 uM incubated for 90 mins under dark condition by microbeta scintillation counting method relative to control.
The target in assay [3] is T1, 5-hydroxytryptamine receptor 2C (Homo sapiens) (UniProt P28335).
T1 sequence (whole entry): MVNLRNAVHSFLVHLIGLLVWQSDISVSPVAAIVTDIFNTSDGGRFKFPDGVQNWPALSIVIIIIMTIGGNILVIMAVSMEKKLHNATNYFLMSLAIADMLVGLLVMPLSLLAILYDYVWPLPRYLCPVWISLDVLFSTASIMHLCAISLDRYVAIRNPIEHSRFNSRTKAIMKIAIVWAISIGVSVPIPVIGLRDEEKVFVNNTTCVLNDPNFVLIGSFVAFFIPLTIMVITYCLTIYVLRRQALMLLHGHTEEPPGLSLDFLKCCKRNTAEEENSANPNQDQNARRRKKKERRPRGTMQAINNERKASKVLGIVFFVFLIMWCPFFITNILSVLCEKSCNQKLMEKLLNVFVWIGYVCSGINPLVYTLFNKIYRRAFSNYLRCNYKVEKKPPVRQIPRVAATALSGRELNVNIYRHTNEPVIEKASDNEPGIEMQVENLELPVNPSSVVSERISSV
The assay is described as follows: Displacement of [3H]mesulergine from human 5-HT2CR expressed in Flp-In HEK cell membranes at 10 uM incubated for 90 mins under dark condition by microbeta scintillation counting method relative to control. The conditions noted are these: HEK293.

For assay [4], the target named is 5-hydroxytryptamine receptor 6 (Homo sapiens) (UniProt P50406). Briefly: Displacement of [3H]LSD from human 5-HT6 receptor expressed in HEK cell membranes at 10 uM incubated for 90 mins under dark condition by microbeta scintillation counting method relative to control. The conditions noted are these: HEK293.
In assay [5] the target is T2, 5-hydroxytryptamine receptor 2C (Homo sapiens, UniProt P28335).
T2 sequence (P28335 whole entry): T1 sequence (whole entry)
Briefly: Displacement of [3H]mesulergine from human 5-HT2CR expressed in Flp-In HEK cell membranes incubated for 90 mins under dark condition by microbeta scintillation counting method. The arrangement: species or system HEK293.

Assay [6] addresses T3, 5-hydroxytryptamine receptor 2B (Homo sapiens, UniProt P41595). Briefly: biochemical. The class given is cell-based, HEK293.
Assay [7] deals with T4, Adenosine receptor A1 (Homo sapiens) (UniProt P30542).
T4 sequence (whole entry): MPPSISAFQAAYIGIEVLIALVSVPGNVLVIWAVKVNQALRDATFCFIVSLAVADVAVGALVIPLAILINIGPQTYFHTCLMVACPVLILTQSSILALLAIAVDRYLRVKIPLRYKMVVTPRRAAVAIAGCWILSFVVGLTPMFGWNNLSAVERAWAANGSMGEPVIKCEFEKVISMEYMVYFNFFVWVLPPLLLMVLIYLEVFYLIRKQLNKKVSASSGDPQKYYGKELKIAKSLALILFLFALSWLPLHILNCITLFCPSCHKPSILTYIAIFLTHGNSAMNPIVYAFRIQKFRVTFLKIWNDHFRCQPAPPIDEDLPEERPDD
Briefly: Displacement of [3H]N6-phenylisopropyladenosine from recombinant human A1AR expressed in CHO cell membranes at 10 uM after 60 mins by liquid scintillation counting method relative to control.

The target of assay [8] is 5-hydroxytryptamine receptor 7 (Homo sapiens) (UniProt P34969). Briefly: Displacement of [3H]LSD from human 5-HT7A receptor expressed in HEK cell membranes at 10 uM incubated for 90 mins under dark condition by microbeta scintillation counting method relative to control. The conditions noted are these: HEK293.
The target in assay [9] is T5, Adenosine receptor A3 (Homo sapiens, UniProt P0DMS8).
T5 sequence (P0DMS8 whole entry): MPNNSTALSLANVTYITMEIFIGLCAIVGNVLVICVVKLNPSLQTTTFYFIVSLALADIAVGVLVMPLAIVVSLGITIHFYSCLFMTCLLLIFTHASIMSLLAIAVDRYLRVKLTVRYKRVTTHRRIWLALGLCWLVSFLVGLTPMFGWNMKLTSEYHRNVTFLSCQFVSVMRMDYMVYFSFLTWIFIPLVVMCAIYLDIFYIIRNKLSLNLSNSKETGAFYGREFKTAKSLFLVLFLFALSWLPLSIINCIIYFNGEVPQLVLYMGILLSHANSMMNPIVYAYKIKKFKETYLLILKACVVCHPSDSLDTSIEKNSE
Briefly: Displacement of [125l]N 6-(4-amino-3-iodobenzyl)adenosine-5'-N-methyluronamide from recombinant human A3AR expressed in CHO cell membranes after 60 mins by gamma counting method.

Assay [10] has as its target T6, 5-hydroxytryptamine receptor 3A (Homo sapiens) (UniProt P46098).
T6 sequence (whole entry): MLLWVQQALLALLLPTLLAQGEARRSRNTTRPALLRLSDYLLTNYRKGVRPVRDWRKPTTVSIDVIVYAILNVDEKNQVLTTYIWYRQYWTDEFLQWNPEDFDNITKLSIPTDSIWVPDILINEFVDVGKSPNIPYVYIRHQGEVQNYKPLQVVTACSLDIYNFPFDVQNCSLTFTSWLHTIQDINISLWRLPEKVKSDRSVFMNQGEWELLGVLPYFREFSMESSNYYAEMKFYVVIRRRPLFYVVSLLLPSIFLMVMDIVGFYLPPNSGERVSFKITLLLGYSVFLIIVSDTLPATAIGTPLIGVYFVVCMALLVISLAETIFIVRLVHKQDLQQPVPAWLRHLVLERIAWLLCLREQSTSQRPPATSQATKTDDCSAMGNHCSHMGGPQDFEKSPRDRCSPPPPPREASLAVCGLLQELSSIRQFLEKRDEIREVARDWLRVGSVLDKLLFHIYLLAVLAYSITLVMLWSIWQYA
Briefly: Displacement of [3H]GR65630 from human 5-HT3 receptor expressed in HEK-T cell membranes at 10 uM incubated for 90 mins under dark condition by microbeta scintillation counting method relative to control.

Assay [11] concerns the target 5-hydroxytryptamine receptor 1E (Homo sapiens) (UniProt P28566). The assay is described as follows: Displacement of [3H]5-HT from human 5-HT1E receptor expressed in HEK cell membranes at 10 uM incubated for 90 mins under dark condition by microbeta scintillation counting method relative to control. The conditions noted are these: HEK293.
In assay [12] the target is T7, Adenosine receptor A2a (Homo sapiens, UniProt P29274). Briefly: Displacement of [3 H]2-[p-(2-carboxyethyl)phenyl-ethylamino]-5'-N-ethylcarboxamidoadenosine from recombinant human adenosine receptor A2A expressed in HEK293 cell membranes at 10 uM after 60 mins by liquid scintillation counting method relative to control.
In assay [13] the target is 5-hydroxytryptamine receptor 5A (Homo sapiens) (UniProt P47898). The assay is described as follows: Displacement of [3H]LSD from human 5-HT5A receptor expressed in Flp-In-CHO cell membranes incubated for 90 mins under dark condition by microbeta scintillation counting method relative to control. The arrangement: concentration or dose not given beside the values.
For assay [14], the target named is T8, 5-hydroxytryptamine receptor 1A (Homo sapiens) (UniProt P08908).
T8 sequence (whole entry): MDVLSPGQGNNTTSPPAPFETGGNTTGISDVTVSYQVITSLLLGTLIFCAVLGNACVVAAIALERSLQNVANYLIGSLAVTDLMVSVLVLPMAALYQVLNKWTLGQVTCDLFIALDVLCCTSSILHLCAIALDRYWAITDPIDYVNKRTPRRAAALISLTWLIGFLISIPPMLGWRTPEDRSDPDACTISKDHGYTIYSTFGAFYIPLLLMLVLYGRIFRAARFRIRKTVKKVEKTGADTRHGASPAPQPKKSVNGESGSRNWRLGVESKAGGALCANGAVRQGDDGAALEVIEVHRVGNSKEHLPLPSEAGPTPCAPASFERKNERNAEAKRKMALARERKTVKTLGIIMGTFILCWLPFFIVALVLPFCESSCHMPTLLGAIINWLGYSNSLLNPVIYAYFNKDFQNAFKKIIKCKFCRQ
The assay is described as follows: Displacement of [3H]WAY100635 from human 5-HT1AR expressed in CHO cell membranes at 10 uM incubated for 90 mins under dark condition by microbeta scintillation counting method relative to control.

Assay [15] deals with T3, 5-hydroxytryptamine receptor 2B. The conditions noted are these: HEK293, at 10 µM.
Assay [16] deals with 5-hydroxytryptamine receptor 1B (Homo sapiens) (UniProt P28222). The assay is described as follows: Displacement of [3H]5-CT from human 5-HT1BR expressed in HEK cell membranes at 10 uM incubated for 90 mins under dark condition by microbeta scintillation counting method relative to control. As to conditions: HEK293.
Assay [17] has as its target T9, 5-hydroxytryptamine receptor 2A (Homo sapiens, UniProt P28223). The assay is described as follows: Displacement of [3H]ketanserin from human 5-HT2A receptor expressed in HEK-T cell membranes at 10 uM incubated for 90 mins under dark condition by microbeta scintillation counting method relative to control.
In assay [18] the target is T9, 5-hydroxytryptamine receptor 2A. Briefly: Displacement of [3H]ketanserin from human 5-HT2A receptor expressed in HEK-T cell membranes incubated for 90 mins under dark condition by microbeta scintillation counting method.
In assay [19] the target is T10, Adenosine receptor A1 (Homo sapiens, UniProt P30542).
T10 sequence (P30542 whole entry): T4 sequence (whole entry)
Briefly: Displacement of [3H]N6-phenylisopropyladenosine from recombinant human A1AR expressed in CHO cell membranes after 60 mins by liquid scintillation counting method.

The target in assay [20] is T7, Adenosine receptor A2a. The assay is described as follows: Displacement of [3 H]2-[p-(2-carboxyethyl)phenyl-ethylamino]-5'-N-ethylcarboxamidoadenosine from recombinant human adenosine receptor A2A expressed in HEK293 cell membranes after 60 mins by liquid scintillation counting method.

5-hydroxytryptamine receptor 7 (Homo sapiens), sequence (P34969 whole entry): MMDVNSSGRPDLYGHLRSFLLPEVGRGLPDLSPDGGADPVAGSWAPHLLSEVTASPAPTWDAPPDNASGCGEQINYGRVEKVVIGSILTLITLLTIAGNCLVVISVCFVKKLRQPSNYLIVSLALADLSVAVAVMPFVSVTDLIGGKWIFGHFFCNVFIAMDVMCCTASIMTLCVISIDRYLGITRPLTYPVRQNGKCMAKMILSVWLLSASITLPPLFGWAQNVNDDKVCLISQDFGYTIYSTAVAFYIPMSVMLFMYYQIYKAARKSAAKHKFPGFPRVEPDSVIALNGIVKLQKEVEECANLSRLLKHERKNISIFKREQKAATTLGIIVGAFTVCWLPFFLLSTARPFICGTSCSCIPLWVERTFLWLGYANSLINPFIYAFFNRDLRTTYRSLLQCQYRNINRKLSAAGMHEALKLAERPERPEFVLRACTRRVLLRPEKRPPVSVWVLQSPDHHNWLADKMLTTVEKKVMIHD
T3 sequence (P41595 whole entry): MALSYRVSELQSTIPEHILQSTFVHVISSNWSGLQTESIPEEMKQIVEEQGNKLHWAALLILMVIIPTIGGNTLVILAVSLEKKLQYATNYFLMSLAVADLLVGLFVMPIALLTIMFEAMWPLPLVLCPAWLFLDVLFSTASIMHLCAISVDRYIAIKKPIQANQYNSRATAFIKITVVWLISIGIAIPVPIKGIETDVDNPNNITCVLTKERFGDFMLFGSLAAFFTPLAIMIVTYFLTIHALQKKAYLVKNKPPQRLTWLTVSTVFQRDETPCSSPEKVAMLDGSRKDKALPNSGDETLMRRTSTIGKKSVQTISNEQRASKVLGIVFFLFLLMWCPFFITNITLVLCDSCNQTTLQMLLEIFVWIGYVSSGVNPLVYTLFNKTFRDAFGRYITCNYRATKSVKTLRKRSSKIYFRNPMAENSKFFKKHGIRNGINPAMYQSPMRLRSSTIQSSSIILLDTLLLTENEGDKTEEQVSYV
5-hydroxytryptamine receptor 6 (Homo sapiens), sequence (P50406 whole entry): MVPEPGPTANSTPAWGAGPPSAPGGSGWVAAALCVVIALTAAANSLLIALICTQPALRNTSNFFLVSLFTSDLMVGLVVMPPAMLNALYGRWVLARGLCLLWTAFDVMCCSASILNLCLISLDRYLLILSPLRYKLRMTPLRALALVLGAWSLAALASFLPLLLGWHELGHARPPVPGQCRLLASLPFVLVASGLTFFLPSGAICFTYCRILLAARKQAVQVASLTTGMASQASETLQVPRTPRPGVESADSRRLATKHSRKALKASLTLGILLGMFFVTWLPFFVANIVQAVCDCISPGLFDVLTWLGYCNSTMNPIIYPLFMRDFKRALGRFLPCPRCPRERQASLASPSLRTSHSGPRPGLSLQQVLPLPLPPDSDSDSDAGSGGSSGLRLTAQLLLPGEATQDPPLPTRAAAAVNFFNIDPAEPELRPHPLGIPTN
T7 sequence (P29274 whole entry): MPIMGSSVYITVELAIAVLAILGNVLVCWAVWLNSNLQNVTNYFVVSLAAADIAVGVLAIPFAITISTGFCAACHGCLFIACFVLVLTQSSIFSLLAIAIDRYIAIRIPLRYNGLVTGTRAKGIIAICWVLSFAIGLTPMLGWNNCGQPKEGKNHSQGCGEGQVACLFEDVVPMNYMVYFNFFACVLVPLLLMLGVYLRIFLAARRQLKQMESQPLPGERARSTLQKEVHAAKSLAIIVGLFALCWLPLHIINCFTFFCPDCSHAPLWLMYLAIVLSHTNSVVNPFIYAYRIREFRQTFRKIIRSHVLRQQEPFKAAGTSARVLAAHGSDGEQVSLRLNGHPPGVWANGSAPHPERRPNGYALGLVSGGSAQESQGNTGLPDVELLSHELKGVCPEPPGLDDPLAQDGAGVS
5-hydroxytryptamine receptor 1B (Homo sapiens), sequence (P28222 whole entry): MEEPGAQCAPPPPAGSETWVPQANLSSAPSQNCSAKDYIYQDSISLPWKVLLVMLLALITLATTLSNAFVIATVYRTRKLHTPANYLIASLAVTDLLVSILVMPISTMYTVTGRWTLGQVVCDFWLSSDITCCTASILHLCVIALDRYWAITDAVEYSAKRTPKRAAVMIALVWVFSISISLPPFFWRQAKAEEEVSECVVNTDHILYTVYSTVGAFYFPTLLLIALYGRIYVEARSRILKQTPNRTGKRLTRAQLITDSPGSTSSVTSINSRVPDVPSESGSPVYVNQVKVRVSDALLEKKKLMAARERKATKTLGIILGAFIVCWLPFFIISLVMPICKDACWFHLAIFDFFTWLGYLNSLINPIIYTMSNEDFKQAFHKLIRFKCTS
5-hydroxytryptamine receptor 4 (Homo sapiens), sequence (Q13639 whole entry): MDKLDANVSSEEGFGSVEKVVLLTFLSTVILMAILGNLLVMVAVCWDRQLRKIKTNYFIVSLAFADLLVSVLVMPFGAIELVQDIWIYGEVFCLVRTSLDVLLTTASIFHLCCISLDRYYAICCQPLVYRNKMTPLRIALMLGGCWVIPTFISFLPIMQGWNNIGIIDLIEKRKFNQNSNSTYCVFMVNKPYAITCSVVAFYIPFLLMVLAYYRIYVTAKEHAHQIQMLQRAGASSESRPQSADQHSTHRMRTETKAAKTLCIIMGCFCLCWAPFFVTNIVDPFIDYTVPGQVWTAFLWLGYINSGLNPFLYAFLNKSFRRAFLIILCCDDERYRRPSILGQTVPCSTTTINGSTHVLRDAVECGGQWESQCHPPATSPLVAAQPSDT
5-hydroxytryptamine receptor 5A (Homo sapiens), sequence (P47898 whole entry): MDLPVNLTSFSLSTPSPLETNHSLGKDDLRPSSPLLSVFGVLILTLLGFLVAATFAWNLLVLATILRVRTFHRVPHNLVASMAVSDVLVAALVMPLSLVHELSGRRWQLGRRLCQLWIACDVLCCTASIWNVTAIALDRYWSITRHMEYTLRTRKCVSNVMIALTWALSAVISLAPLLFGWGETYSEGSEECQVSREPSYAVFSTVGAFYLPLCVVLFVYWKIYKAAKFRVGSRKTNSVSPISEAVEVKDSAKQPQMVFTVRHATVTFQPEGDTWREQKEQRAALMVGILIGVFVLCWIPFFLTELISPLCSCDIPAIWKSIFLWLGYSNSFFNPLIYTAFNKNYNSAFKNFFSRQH
5-hydroxytryptamine receptor 1D (Homo sapiens), sequence (P28221 whole entry): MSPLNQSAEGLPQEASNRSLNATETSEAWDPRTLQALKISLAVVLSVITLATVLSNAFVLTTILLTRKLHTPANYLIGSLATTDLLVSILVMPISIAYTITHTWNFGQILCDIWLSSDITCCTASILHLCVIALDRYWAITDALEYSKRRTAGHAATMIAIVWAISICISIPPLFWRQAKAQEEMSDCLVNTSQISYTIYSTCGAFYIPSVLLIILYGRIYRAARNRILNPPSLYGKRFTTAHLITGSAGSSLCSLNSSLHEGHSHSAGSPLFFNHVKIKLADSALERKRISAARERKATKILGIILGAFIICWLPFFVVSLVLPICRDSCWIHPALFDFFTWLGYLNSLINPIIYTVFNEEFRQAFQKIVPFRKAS
T9 sequence (P28223 whole entry): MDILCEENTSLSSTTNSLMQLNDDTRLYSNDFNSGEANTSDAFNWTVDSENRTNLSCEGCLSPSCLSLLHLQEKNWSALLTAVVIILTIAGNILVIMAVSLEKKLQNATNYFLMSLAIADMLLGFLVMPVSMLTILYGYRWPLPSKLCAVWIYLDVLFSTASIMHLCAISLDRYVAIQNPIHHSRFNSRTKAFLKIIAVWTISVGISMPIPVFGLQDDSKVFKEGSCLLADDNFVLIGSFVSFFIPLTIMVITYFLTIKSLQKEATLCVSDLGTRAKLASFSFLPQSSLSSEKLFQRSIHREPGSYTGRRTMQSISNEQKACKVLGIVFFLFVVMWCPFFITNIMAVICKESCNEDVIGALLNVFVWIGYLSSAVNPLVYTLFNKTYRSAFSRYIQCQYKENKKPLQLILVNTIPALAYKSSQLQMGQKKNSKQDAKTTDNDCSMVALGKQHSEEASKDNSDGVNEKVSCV
5-hydroxytryptamine receptor 1E (Homo sapiens), sequence (P28566 whole entry): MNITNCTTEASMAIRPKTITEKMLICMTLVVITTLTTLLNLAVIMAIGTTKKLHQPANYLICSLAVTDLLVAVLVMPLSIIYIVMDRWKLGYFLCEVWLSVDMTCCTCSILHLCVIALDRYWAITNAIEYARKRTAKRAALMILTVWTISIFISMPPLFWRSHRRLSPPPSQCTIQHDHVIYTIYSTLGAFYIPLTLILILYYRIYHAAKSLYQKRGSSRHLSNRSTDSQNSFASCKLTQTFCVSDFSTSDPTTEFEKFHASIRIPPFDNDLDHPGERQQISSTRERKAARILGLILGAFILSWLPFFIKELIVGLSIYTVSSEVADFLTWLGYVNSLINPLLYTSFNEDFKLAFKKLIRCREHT

For the compound `CNC(=O)[C@@]12C[C@@H]1[C@@H](n1cnc3c(N(C)C)nc(Cl)nc31)[C@H](O)[C@@H]2O`, the inhibition in [1] is less than 50%; in assay [2], less than 50%; in assay [3] it was more than 50%; in assay [4], less than 50%; in assay [7], 26%; in [8], less than 50%. Further, the inhibition was less than 50% in [10]; less than 50% in [11]; less than 10% in assay [12]; less than 50% in assay [13]; less than 50% in [14]; more than 50% in assay [15]. Moreover, the results for the inhibition in assay [16] and in assay [17] were less than 50% and less than 10%, respectively. Besides, the Ki in [5] was 4300 nM; in assay [6], 2100 nM; in assay [9], 1480 nM; in [18], more than 10000 nM.

With `OC[C@@]12C[C@@H]1[C@@H](n1cnc3c(N[C@@H](C4CCC4)C4CC4)nc(Cl)nc31)[C@H](O)[C@@H]2O`, the inhibition was less than 50% in [1]; less than 50% in assay [2]; more than 50% in assay [3]; less than 50% in assay [4]; less than 50% in assay [8]; less than 50% in assay [10]. The inhibition in assay [11] was less than 50%; in [13], less than 50%; in assay [14] it was less than 50%; in assay [16], less than 50%; in assay [17], less than 10%. Besides, the Ki in [5] is 270 nM; in assay [19], 144 nM; in assay [20], 3940 nM; in [18] it was more than 10000 nM.

Take `CC[C@@H](Nc1nc(Cl)nc2c1ncn2[C@H]1[C@H](O)[C@H](O)[C@]2(CO)C[C@H]12)C1CC1`: the inhibition in assay [1] was less than 50%; in [2] it was less than 50%; in assay [3], more than 50%; in assay [4] it was less than 50%; in assay [8], less than 50%; in [10], less than 50%. Further, the inhibition was less than 50% in assay [11]; less than 50% in [13]; less than 50% in assay [14]; less than 50% in assay [16]; less than 10% in assay [17]. Also, the Ki in assay [5] is 371 nM; in assay [19], 76 nM; in assay [20], 1880 nM; in [18] it was more than 10000 nM.

Consider `CN(C)c1nc(Cl)nc2c1ncn2[C@H]1[C@H](O)[C@H](O)[C@]2(CO)C[C@H]12`, for which the inhibition is less than 50% in assay [1]; less than 50% in assay [2]; more than 50% in assay [3]; less than 50% in assay [4]; 11% in [7]; less than 50% in assay [8]. Besides, the inhibition in assay [10] was less than 50%; in assay [11], less than 50%; in [12], less than 10%; in [13], less than 50%; in assay [14], less than 50%; in [15], more than 50%. In addition, the figures for the inhibition in assay [16] and in [17] were less than 50% and less than 10%, respectively. Besides, the values for the Ki in assay [5], in assay [6] and in assay [18] were 8100 nM, 4800 nM and more than 10000 nM, respectively.

For the compound `CC(=O)NCCCNC(=O)[C@@]12C[C@@H]1[C@@H](n1cnc3c(NC(C4CC4)C4CC4)nc(Cl)nc31)[C@H](O)[C@@H]2O`, the inhibition in assay [1] is less than 50%; in assay [2], less than 50%; in assay [3], more than 50%; in [4], less than 50%; in [7] it was 46%; in [8], less than 50%. In addition, the inhibition in [10] was less than 50%; in assay [11] it was less than 50%; in assay [12], 26%; in [13], less than 50%; in [14] it was less than 50%; in assay [15], more than 50%. Besides, the inhibition in [16] is less than 50%; in [17], less than 10%. Also, the results for the Ki in assay [5], in assay [6] and in assay [18] were 2310 nM, 534 nM and more than 10000 nM, respectively.
